The assay has as its system U-2 OS (ATCC HTB-96) human osteosarcoma cell line. The assay is described as follows: Timelapse imaging determination of sequential intermitotic times (IMT1, IMT2) in cell lineages. Type of assay: cell-based. As to conditions: U-2 OS lineages from progenitors exposed to 10 μM topotecan for 1 h. The method, then:
Human osteosarcoma cell line (U-2 OS (ATCC HTB-96)23) derived from a person were used. The cells were maintained at 37° C. and 5% CO2 using standard tissue culture techniques. Media used was McCoys 5A modified (Sigma) supplemented with 2 mM glutamine, 100 units/ml penicillin, 100 μg/ml streptomycin and 10% fetal calf serum. The cells were seeded onto tissue culture plastic, PDMS layer with and without PDMS microtrench arrays and placed in a six-well multi-well dish (10^4 cells per ml) and left to establish for 24 hours. Post-24 hours incubation the culture dish was then immediately placed onto a timelapse imaging instrument designed to capture transmission phase images from multi-well plates. An Axiovert 100 microscope (Carl Zeiss, Welwyn Garden City, UK) was fitted with an incubator for 37° C./5% CO2 maintenance (Solent Scientific, Portsmouth, UK), and an ORCA-ER CCD camera (Hamamatsu, Reading, UK). All images were collected with a x10 (PH1) apochromat objective lens providing a full view of each microtrench format. Sequences were captured sampling at 15 min, and for three fields per treatment regime (using AQM, Kinetic Imaging, Nottingham, UK). MetaMorph software (Molecular Devices, California) was used to view the stacked image in sequence as for each experiment the images were stacked and saved as *.stk format. […]

Structures are written as SMILES.

With `CC[C@@]1(O)C(=O)OCc2c1cc1n(c2=O)Cc2cc3c(CN(C)C)c(O)ccc3nc2-1` [topotecan], where the note is “time between the division generating daughters and the division generating granddaughters”, the “IMT2 (av ± sd)” value was determined as 22.9 ± 5.5. In addition, the “IMT1 (av ± sd)” value (time between the division generating the mother cell and the division generating two daughters) is on record as 24 ± 4.4.

These data come from patent US20110171663A1, “MICROTRENCH AND TUMOUR PROLIFERATION ASSAY” (University College Cardiff Consultants Ltd, priority 2008, published 2011).
